Data reported in PubChem BioAssay AID489022 (Sanford-Burnham Center for Chemical Genomics, 2010).
Calls of active or inactive are those of the source. The rule behind the calls is not given here.

Each molecule was assayed on HEK-293T NF-kB luciferase reporter, luminescence counterscreen (assay: NF-kB reporter suppression in HEK-293T cells – luminescence, B-cell screen hits, counter-screen for BCR NF-kB inhibitor project, dose response (AID 489022)).

Row | SMILES | IC50
1 | COc1ccc(/C=N/OCC(=O)NC(c2ccccc2)c2ccccc2)cc1OC | 0.72 µM
2 | Cc1nc([N+](=O)[O-])c(Sc2nc3ccc([N+](=O)[O-])cc3[nH]2)n1Cc1ccccc1 | 47.5 µM (inactive)
3 | CCOC(=O)c1sc(NC(=O)c2cc(-c3ccccc3C)nc3ccccc23)c(C#N)c1C | 0.29 µM
4 | Cc1nn(C(C)(C)C)c(C)c1/C=N/OC(=O)Nc1ccc(Cl)c(Cl)c1 | < 0.16 µM
5 | CN(C)C(=O)CCc1nc(-c2ccc(C(C)(C)C)cc2)no1 | 51.8 µM (inactive)
6 | CN1C(=O)c2cccc3c(S(=O)(=O)Nc4ccccc4F)ccc1c23 | 69.7 µM (inactive)
7 | Cc1ccc(-n2c(-c3ccccc3)c[n+]3c2CCc2ccccc2-3)c(C)c1 | 2.15 µM
8 | COc1ccc(-c2noc(N3CCC(C(=O)Nc4ccc(F)cc4F)CC3)n2)cc1 | > 80 µM (inactive)
9 | CC1(c2nnc(-c3cccc(Cl)c3)o2)CC(c2cccc(Cl)c2)=NO1 (stereo unspecified) | 29.9 µM (inactive)
10 | Cc1c(CC(=O)NCCCC(=O)O)c(=O)oc2cc3c(cc12)CCC(C)(C)O3 | 3.39 µM
11 | Cc1cc(C)c(CN2CCN(C(=O)Cn3cnc4c(NCc5ccccc5)ncnc43)CC2)c(C)c1 | 0.51 µM
12 | COc1ccc(OCc2cccc(C(=O)Nc3cc(C)on3)c2)cc1 | 50.6 µM (inactive)
13 | CCOc1ccc(NC(=O)CCCc2cc(-c3ccc(OCC)cc3)on2)cc1 | > 80 µM (inactive)
14 | COc1cc(-c2nc(C(=O)NCC3CCCO3)cc3c2[nH]c2ccccc23)cc(OC)c1OC (stereo unspecified) | 13.7 µM
15 | Cn1c(=O)n(C)c2cc(NC(=O)CSc3nnc(-c4ccccc4O)n3-c3ccccc3)ccc21 | 18.2 µM
16 | COc1cc(C[C@@H]2C(=O)OC[C@H]2Cc2ccc(OC)c(OC)c2)ccc1O | 0.66 µM
17 | COc1ccc(NS(=O)(=O)c2cc(NC(=O)c3cc(=O)c4ccccc4o3)ccc2OC)cc1 | > 80 µM (inactive)
18 | CC(C)C(=O)Nc1ccc(NC(=O)c2ccc3c(c2)OCO3)cc1 | > 80 µM (inactive)
19 | COc1ccc(C(=O)n2nc(-c3ccc(Cl)cc3)nc2N)cc1OC | > 80 µM (inactive)
20 | CCc1ccc(/C=C2/SC(=S)N(CCC(=O)Nc3cccc(C(=O)O)c3)C2=O)cc1 | > 80 µM (inactive)
21 | CCc1ccc(/C=C2/SC(=S)N(CCC(=O)Nc3cccnc3)C2=O)cc1 | > 80 µM (inactive)
22 | COC(=O)c1[nH]c2ccc(C)cc2c1NC(=O)Nc1ccccc1OC | > 80 µM (inactive)
23 | CC1CCN(c2c(NCc3ccc(C(=O)N4c5ccccc5CC4C)cc3)c(=O)c2=O)CC1 (stereo unspecified) | 8.73 µM
24 | CC1=CC(C)(C)Nc2ccc(OC(=O)C(Cc3ccccc3)N3C(=O)c4ccccc4C3=O)cc21 (stereo unspecified) | > 80 µM (inactive)

Row | SMILES | IC50
25 | O=C(O)CCSc1ncnc2sc(-c3ccccc3)cc12 | 11.8 µM
26 | O=C(CCCN1C(=O)S/C(=C\c2ccccc2)C1=O)NNC(=O)c1ccccc1O | 1.64 µM
27 | Cc1[nH]c2ccccc2c1/C=N/Nc1nc(Nc2ccccc2)nc(N2CCOCC2)n1 | > 80 µM (inactive)
28 | CCOC(=O)/C=C(\C)Sc1cc(=O)oc2ccccc12 | 10.5 µM
29 | COc1ccc(/C=C2\SC(=S)N(CCC(=O)Nc3ccc(O)cc3)C2=O)cc1 | > 80 µM (inactive)
30 | CCc1sc(C(=O)Nc2cccc(-n3cnnn3)c2)cc1C | > 80 µM (inactive)
31 | CCN(CC)c1ccc(/C=C2/C(=O)ON=C2C)cc1 | > 80 µM (inactive)
32 | CCc1ccc(/C=C2\SC(=S)N(CCCC(=O)Nc3ccccn3)C2=O)cc1 | > 80 µM (inactive)
33 | O=C(CCCN1C(=O)S/C(=C/C=C/c2ccccc2)C1=O)Nc1ccc(C(=O)O)cc1 | > 80 µM (inactive)
34 | CCOc1ccc(-c2nnc(SCC(=O)NC3CC3)o2)cc1 | > 80 µM (inactive)
35 | O=C(CCl)Nc1ccccc1Sc1ccccc1 | 37.8 µM (inactive)
36 | COc1cc(Br)c(C(=O)c2nccc3cc(OC)c(OC)cc23)cc1OC | 27.5 µM (inactive)
37 | CCC(C)NC(=O)c1c(N)n(/N=C/c2ccccn2)c2nc3ccccc3nc12 (stereo unspecified) | 34.8 µM (inactive)
38 | Cc1nn(-c2ccc(N3CCCCC3)nn2)c(C)c1CCC(=O)Nc1ccccc1F | 73.3 µM (inactive)
39 | COc1cccc(Cn2nnc(C(=O)Nc3cc(Cl)ccc3OC)c2N)c1 | > 80 µM (inactive)
40 | CC(C)(C)c1ccc(-c2noc(CCC(=O)NCC3CCCO3)n2)cc1 (stereo unspecified) | 1.22 µM
41 | Cc1cc(-c2cc(C(=O)NCc3ccccc3)on2)nc(S(C)(=O)=O)n1 | 15.6 µM
42 | COc1ccc(-n2c(-c3ccc(Br)cc3)c[n+]3c2CCc2ccccc2-3)cc1 | 3.96 µM
43 | CC(C)(C)c1ccc(-n2ncc3c2CCCC3NC(=O)C2(C(N)=O)CC2)cc1 (stereo unspecified) | 0.34 µM
44 | O=C(O)COc1ccc(-c2nccc(-c3ccccn3)n2)cc1 | 13.3 µM
45 | Cc1cc(N(C)C)ccc1N=Nc1ccc(N)cc1 | 64.3 µM (inactive)
46 | CCOc1ccc(-c2cc(CCCC(=O)NCc3ccc(C)cc3)no2)cc1 | 70.9 µM (inactive)
47 | Cc1ccccc1-c1cc(C(=O)Nc2sc(C(=O)OC(C)C)c(C)c2C#N)c2ccccc2n1 | 0.35 µM
48 | CC1CC(C)CN(S(=O)(=O)c2ccc(C(=O)NCCCn3ccnc3)cc2)C1 (stereo unspecified) | > 80 µM (inactive)

Row | SMILES | IC50
49 | CCOc1ccc(-c2noc(CCC(=O)O)n2)cc1 | 8.98 µM
50 | C=C(C)[C@@H]1CCC2(C(=O)O)CC[C@]3(C)[C@H](CC[C@@H]4[C@@]5(C)CCC(=O)C(C)(C)[C@@H]5CC[C@]43C)[C@@H]12 (stereo partly specified) | 3.31 µM
51 | COc1ccc(-c2ccoc2)cc1[C@H]1[C@H]2C=CC[C@@H](C)[C@@H]2C(=O)N1Cc1ccccc1 | 10.5 µM
52 | CCC(=O)N1c2ccccc2C(N(C(C)=O)c2ccccc2)CC1C (stereo unspecified) | > 80 µM (inactive)
53 | COc1ccc(NC(=O)CN(C)C(=O)C2(c3ccccc3)CCCC2)cc1 | 21.3 µM (inactive)
54 | CCc1ccc(-c2nnn(CCC(=O)OC)n2)cc1 | 0.6 µM
55 | Cc1ccc(NC(=O)C2CCC(CNc3c(N4CCC(C)CC4)c(=O)c3=O)CC2)cc1F (stereo unspecified) | > 80 µM (inactive)
56 | Cc1ccc(-c2cn(-c3ccccc3)c3[n+]2CCCS3)cc1 | 4.88 µM
57 | COc1cc(NC(=O)c2ccco2)c(OC)cc1NC(=O)c1cc(OC)c(OC)c(OC)c1 | 17.7 µM
58 | O=C(CN1C(=O)c2ccccc2S1(=O)=O)c1ccc(Cl)cc1Cl | 17.9 µM
59 | CCOc1ccc(-n2c(-c3ccccc3)c[n+]3c2CCCCC3)cc1 | 1.4 µM
60 | COc1ccc(C(=O)Nc2nnc(Cc3cccs3)s2)cc1OC | > 80 µM (inactive)
61 | Cc1ccc(-c2nc(C(=O)NCC3CCCO3)cc3c2[nH]c2ccccc23)cc1 (stereo unspecified) | 8.81 µM
62 | O=C(CCl)N1CCN(S(=O)(=O)c2ccc3c(c2)CCC3)CC1 | 41.9 µM (inactive)
63 | CCN(CC)CCOC(=O)c1ccc(NC(=O)COc2cc(=O)n(CC)c3ccccc23)cc1 | 43.8 µM (inactive)
64 | CCC(CC)C(=O)Nc1ccc(Sc2ccc([N+](=O)[O-])cc2)cc1 | 13.7 µM
65 | CCN(CC(=O)Nc1c(F)cccc1F)C(=O)c1cc(S(=O)(=O)N(C)C)ccc1N1CCCC1 | > 80 µM (inactive)
66 | CCN1C(=O)c2cccc3c(S(=O)(=O)Nc4ccccn4)ccc1c23 | 9.44 µM
67 | CC1=CC(C)(C)Nc2ccc(OC(=O)CN3C(=O)CCC3=O)cc21 | 11.1 µM
68 | CC(C)C[C@@H](N)c1nnc(SCC(=O)c2ccc(Cl)cc2)o1 | 31.9 µM (inactive)
69 | Cn1c(=O)n(C)c2cc(C(=O)Nc3ccc4c(c3)OCO4)ccc21 | > 80 µM (inactive)
70 | CC1=CC(C)(C)Nc2ccc(OC(=O)c3cccnc3)cc21 | 16.1 µM
71 | N#Cc1ccccc1COc1ccc(/C=C/C(=O)O)cc1 | 6.03 µM
